# Strand notation (5' to 3'): a small letter for the sugar, then the base; units joined by * are phosphorothioate-linked, units joined directly phosphodiester-linked; [ ] holds rarer units or linkages, { } end groups; capitals alone tell only the bases. e = 2'-O-(2-methoxyethyl) (MOE); [5mC] = 5-methylcytosine; d = 2'-deoxy (DNA)
# What was measured:
# human PKK mRNA [1] = assay: Antisense inhibition of human PKK mRNA in HepaRG cells, 5,000 nM (Example 2); type: cell-based
# Method in brief: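 qRT-PCR (RTS3454) read-out, RIBOGREEN-normalized; % inhibition vs untreated cells. HepaRG, 20,000 cells/well, electroporation, 5,000 nM ASO, ~24 h.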
# human PKK mRNA [2] = assay: Dose-dependent antisense inhibition of human PKK in HepaRG cells, 0.19-5.00 uM (Example 5); type: cell-based; conditions: HepaRG cells; for percent inhibition of PKK at 0.19 μM / percent inhibition of PKK at 0.56 μM / percent inhibition of PKK at 1.67 μM / percent inhibition of PKK at 5.00 μM: electroporation, approximately 16 hours; for percent inhibition of PKK mRNA, 0.19 μM: 0.19 μM antisense oligonucleotide; for percent inhibition of PKK mRNA, 0.56 μM: 0.56 μM antisense oligonucleotide; for percent inhibition of PKK mRNA, 1.67 μM: 1.67 μM antisense oligonucleotide; for percent inhibition of PKK mRNA, 5.00 μM: 5.00 μM antisense oligonucleotide
# Method in brief: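 PKK mRNA knockdown was measured by real-time PCR (primer probe set RTS3454) about 16 h after electroporating 20,000 HepaRG cells per well with oligonucleotide at four doses from 0.19 to 5.00 μM. Levels were adjusted to RIBOGREEN-measured total RNA, and IC50 values were calculated.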
# [3] = HepaRG cells, 5,000 nM antisense oligonucleotide, 5-10-5 gapmers, Table 16
# [4] = 4 point dose response, Table 36
# [5] = 4 point dose response, Table 37
substance,measurement,setting,value
547712 (antisense e[5mC]*e[5mC]*e[5mC]*e[5mC]*eA*dT*dG*dG*dT*dA*d[5mC]*d[5mC]*dA*dA*dA*eG*e[5mC]*e[5mC]*eA*eT) [compound 547712],% inhibition,human PKK mRNA [1]; [3],79%
same,percent inhibition of PKK at 0.19 μM,human PKK mRNA [2]; Table 40,0%
same,percent inhibition of PKK at 0.56 μM,human PKK mRNA [2]; Table 40,5%
same,percent inhibition of PKK at 1.67 μM,human PKK mRNA [2]; Table 40,21%
same,percent inhibition of PKK at 5.00 μM,human PKK mRNA [2]; Table 40,62%
same,IC50,"human PKK mRNA [2]; 4 point dose response, Table 40",3800 nM
548744 (DNA eT*e[5mC]*eA*e[5mC]*dT*dG*dT*dA*d[5mC]*dT*dA*dG*dT*eT*eT*e[5mC]*e[5mC]; antisense) [compound 548744],% inhibition,"human PKK mRNA [1]; human PKK mRNA, HepaRG cells, 5,000 nM antisense oligonucleotide, Table 18",83%
same,percent inhibition of PKK at 0.19 μM,human PKK mRNA [2]; Table 38,14%
same,percent inhibition of PKK at 0.56 μM,human PKK mRNA [2]; Table 38,35%
same,percent inhibition of PKK at 1.67 μM,human PKK mRNA [2]; Table 38,63%
same,percent inhibition of PKK at 5.00 μM,human PKK mRNA [2]; Table 38,83%
same,IC50,"human PKK mRNA [2]; 4 point dose response, Table 38",1000 nM
547293 (antisense e[5mC]*eA*eT*e[5mC]*eT*dG*dG*d[5mC]*dA*dG*dT*dA*dT*dT*dG*eG*eG*e[5mC]*eA*eT) [compound 547293],% inhibition,"human PKK mRNA [1]; HepaRG cells, electroporation with 5,000 nM antisense oligonucleotide, approximately 24 hours, PKK mRNA by RT-PCR (RTS3454), relative to untreated control cells, Table 5 experiment",92%
same,percent inhibition of PKK at 0.19 μM,human PKK mRNA [2]; Table 36,53%
same,percent inhibition of PKK at 0.56 μM,human PKK mRNA [2]; Table 36,57%
same,percent inhibition of PKK at 1.67 μM,human PKK mRNA [2]; Table 36,80%
same,percent inhibition of PKK at 5.00 μM,human PKK mRNA [2]; Table 36,86%
same,IC50,human PKK mRNA [2]; [4],200 nM
same,"percent inhibition of PKK mRNA, 0.19 μM",human PKK mRNA [2],0%
same,"percent inhibition of PKK mRNA, 0.56 μM",human PKK mRNA [2],45%
same,"percent inhibition of PKK mRNA, 1.67 μM",human PKK mRNA [2],65%
same,"percent inhibition of PKK mRNA, 5.00 μM",human PKK mRNA [2],70%
same,IC50,human PKK mRNA [2]; 0.19-5.00 μM,1300 nM
547718 (eA*eT*eA*eA*eA*dG*dT*dG*d[5mC]*dG*dA*dT*dT*dA*dA*eG*e[5mC]*e[5mC]*e[5mC]*e[5mC]; antisense) [compound 547718],% inhibition,human PKK mRNA [1]; [3],86%
same,percent inhibition of PKK at 0.19 μM,human PKK mRNA [2]; Table 39,36%
same,percent inhibition of PKK at 0.56 μM,human PKK mRNA [2]; Table 39,12%
same,percent inhibition of PKK at 1.67 μM,human PKK mRNA [2]; Table 39,69%
same,percent inhibition of PKK at 5.00 μM,human PKK mRNA [2]; Table 39,74%
same,IC50,"human PKK mRNA [2]; 4 point dose response, Table 39",1600 nM
547349 (antisense e[5mC]*eT*eT*e[5mC]*eA*dA*d[5mC]*dA*d[5mC]*dT*dG*d[5mC]*dT*dA*dA*e[5mC]*e[5mC]*eT*eT*eA) [compound 547349],% inhibition,"human PKK mRNA [1]; HepaRG cells, electroporation with 5,000 nM antisense oligonucleotide, approximately 24 hours, PKK mRNA by RT-PCR (RTS3454), relative to untreated control cells, Table 6 experiment",88%
same,percent inhibition of PKK at 0.19 μM,human PKK mRNA [2]; Table 37,0%
same,percent inhibition of PKK at 0.56 μM,human PKK mRNA [2]; Table 37,8%
same,percent inhibition of PKK at 1.67 μM,human PKK mRNA [2]; Table 37,66%
same,percent inhibition of PKK at 5.00 μM,human PKK mRNA [2]; Table 37,76%
same,IC50,human PKK mRNA [2]; [5],1600 nM
546939 (eG*e[5mC]*e[5mC]*eA*eT*d[5mC]*dT*dG*dG*dT*dT*dA*dG*d[5mC]*d[5mC]*eT*e[5mC]*e[5mC]*eG*eA; antisense) [compound 546939],% inhibition,human PKK mRNA [1]; [3],89%
same,percent inhibition of PKK at 0.19 μM,human PKK mRNA [2]; Table 37,1%
same,percent inhibition of PKK at 0.56 μM,human PKK mRNA [2]; Table 37,66%
same,percent inhibition of PKK at 1.67 μM,human PKK mRNA [2]; Table 37,86%
same,percent inhibition of PKK at 5.00 μM,human PKK mRNA [2]; Table 37,90%
same,IC50,human PKK mRNA [2]; [5],600 nM
same,"percent inhibition of PKK mRNA, 0.19 μM",human PKK mRNA [2],16%
same,"percent inhibition of PKK mRNA, 0.56 μM",human PKK mRNA [2],71%
same,"percent inhibition of PKK mRNA, 1.67 μM",human PKK mRNA [2],96%
same,"percent inhibition of PKK mRNA, 5.00 μM",human PKK mRNA [2],95%
same,IC50,human PKK mRNA [2]; 0.19-5.00 μM,400 nM
546854 (eT*eA*eA*e[5mC]*eA*dG*dT*dA*dT*d[5mC]*dA*d[5mC]*dT*dG*dT*e[5mC]*e[5mC]*eT*eA*eT; antisense) [compound 546854],% inhibition,"human PKK mRNA [1]; human PKK mRNA in HepaRG cells, 5-10-5 gapmers, Table 14",90%
same,percent inhibition of PKK at 0.19 μM,human PKK mRNA [2]; Table 36,23%
same,percent inhibition of PKK at 0.56 μM,human PKK mRNA [2]; Table 36,39%
same,percent inhibition of PKK at 1.67 μM,human PKK mRNA [2]; Table 36,83%
same,percent inhibition of PKK at 5.00 μM,human PKK mRNA [2]; Table 36,94%
same,IC50,human PKK mRNA [2]; [4],600 nM
547647 (eG*eT*e[5mC]*e[5mC]*eT*dA*dT*dA*dT*d[5mC]*dA*d[5mC]*dT*dG*dT*eA*e[5mC]*e[5mC]*eT*eA; antisense) [compound 547647],% inhibition,"human PKK mRNA [1]; human PKK mRNA, HepaRG cells, 5-10-5 motif oligonucleotides targeting SEQ ID NO: 1 and 10",92%
same,percent inhibition of PKK at 0.19 μM,human PKK mRNA [2]; Table 35,1%
same,percent inhibition of PKK at 0.56 μM,human PKK mRNA [2]; Table 35,70%
same,percent inhibition of PKK at 1.67 μM,human PKK mRNA [2]; Table 35,72%
same,IC50,"human PKK mRNA [2]; 4 point dose response, Table 35",800 nM
